{"source": "patent US8637467B2", "about": "“Pharmaceutical being used for treating cancer and fibrosis disease and the composition and uses thereof” (Wuxi MTLH Biotechnology Co., Ltd., priority 2008, dated 2014)", "key": {"[1]": {"test_system": "Rat CC14 liver damage model", "test": "Rat CC14 liver damage model (chronic liver fibrosis)", "assay_type": "in vivo, SD rat", "parameters": "Liver parameters: unit not given here", "experimental": "To evaluate the protective effect of peptide SEQ ID NO:1 on liver damage, we used chronic liver fibrosis model (rat CC14 model) for efficacy evaluation.\nRat CC14 liver damage model\n(1) Control group: saline, sc, 2 ml/kg, 10 rats\n(2) model group: 40% CC14, sc, 2 ml/kg, 17 rats\n(3) Gan-li-xin group: 25 mg/kg, iv, 10 ml/kg, 15 rats\n(4) Prevention, high dose group: 50 μg peptide SEQ ID NO:1/kg, iv, 10 ml/kg, 17 rats\n(5) Prevention, low dose group: 10 μg peptide SEQ ID NO:1/kg, iv, 10 ml/kg, 17 rats\n(6) Treatment, high dose group: 100 μg peptide SEQ ID NO:1/kg, iv, 10 ml/kg, 17 rats\n(7) Treatment, high dose group: 20 μg peptide SEQ ID NO:1/kg, iv, 10 ml/kg, 17 rats\nExcept for control group, inject 40% CC14 subcutaneously twice (Tuesday, and Friday) every week in Group (2) to (6), drug volume (0.2 ml/100 g, the first time 0.5 ml/100 g). CC14 Model construction is 6 weeks. Parallel to the model construction, inject intravenously peptide SEQ ID NO:1 at 50 μg/kg and 10 μg/kg in group (4) and (5), respectively, once a day for 6 weeks. For Group (3), (6), and (7), starting from week 5, inject Gan-li-xin 25 mg/kg, peptide SEQ ID NO:1 at 100 μg/kg and 20 μg/kg, respectively, once a day, continuously for 2 weeks.\nAll rats were weighed once a week during model construction and drug injection. According to weight, the dose of drugs is adjusted. 24 hours after the last time of CC14 injection, liver weight parameters were examined.\nBlood was extracted from femoral artery and serum was separated. The following parameters were examined: serum alanine aminotransferase (ALT), aspartate aminotransferase (AST), Bilirubin (TB), Alkaline phosphatase (ALP), total protein (TP), albumin (ALB), globulin (G), albumin/globulin ratio (A/G), glucose (GLU), total cholesterol (TCH), triglyceride (TG).\nLiver homogenate: to examine cholesterol (TCH), triglyceride (TG), alanine aminotransferase (ALT), and aspartate aminotransferase (AST).\n[…], dry at 110 C, examine Hydroxyproline (HPA).\nPart of the liver is fixed in formalin for histology examination."}, "[2]": {"test_system": "human breast cancer MDA-MB-435", "test": "Human breast cancer MDA-MB-435 xenograph nude mice", "assay_type": "in vivo", "settings": "0.5 mg/kg IV, 6 times a week, 4 weeks", "experimental": "Experimental animals: Female BALB/cA nude mice, age 35-40 days, weight 18-22 g, provided by Shanghai Silaike Experimental Animal Co. Ltd., certificate number: SOCK (Shanghai) 2007-0005.\nThe tumor of xenograph nude mice grew to 100˜300 mm^3. Tumor mice were divided into different groups for drug testing. In the experiment below, there were 12 nude mice in negative control group, and 6 nude mice in the group with tested drug. Tumor diameter was measured three times each week, and mice weight was measured at the same time.\nT/C (relative tumor inhibition rate) % was calculated as below: • (1) tumor volume, TV, calculated as below: TV=½×a×b^2 • A and b are length and width. • (2) relative tumor volume, RTV, calculated as below: RTV=TVt/TV0. • TV0 ? is tumor volume at the beginning of drug use (d0), TVt is tumor volume at later time point. • (3) relative tumor inhibition rate T/C (%), calculate as below:\n[formula] TRTV: treatment group RTV; CRTV: negative control RTV\nPeptide SEQ ID No:1 was given through tail vein (IV), at dosing of 2 mg/kg, 1 mg/kg, 0.5 mg/kg, 6 times a week. Docetaxol was positive control, at dosing of 20 mg/kg, once a week. Negative control was given saline solution. The xenograph nude mice were treated for 4 weeks."}, "[3]": {"settings": "Prevention, High dose 50 μg/kg iv, once a day for 6 weeks"}, "[4]": {"settings": "Prevention, low dose 10 μg/kg iv, once a day for 6 weeks"}, "[5]": {"settings": "Treatment, High dose 100 μg/kg iv, once a day for 2 weeks from week 5"}, "[6]": {"settings": "Treatment, low dose 20 μg/kg iv, once a day for 2 weeks from week 5"}}, "note": "Where no end group is shown, it is not given here."}
{"substance": "SKVTKKYHEVLQLRPKTGVRGLHKSLTDVALEHHEECDCVCRGSTGG-OH (cysteines drawn unpaired) [Peptide SEQ ID NO:1]", "values": [{"measurement": "ALB (albumin), serum", "setting": "[1]; [3]", "result": "20.8 ± 2.0", "unit": "g/L"}, {"measurement": "ALP (alkaline phosphatase), serum", "setting": "[1]; [3]", "result": "266.3 ± 85.7", "unit": "IU/L"}, {"measurement": "ALT (alanine aminotransferase), serum", "setting": "[1]; [3]", "result": "75 ± 29.4", "unit": "IU/L"}, {"measurement": "AST (aspartate aminotransferase), serum", "setting": "[1]; [3]", "result": "236.8 ± 27.2", "unit": "IU/L"}, {"measurement": "Bilirubin, serum", "setting": "[1]; [3]", "result": "3.3 ± 0.1", "unit": "µmol/L"}, {"measurement": "GLU (glucose), serum", "setting": "[1]; [3]", "result": "6.5 ± 0.9", "unit": "mmol/L"}, {"measurement": "Liver parameters", "setting": "[1]; [3]", "result": "4.3 ± 0.4"}, {"measurement": "Liver weight", "setting": "[1]; [3]", "result": "12.1 ± 2.5", "unit": "g"}, {"measurement": "TCH (total cholesterol), serum", "setting": "[1]; [3]", "result": "1.9 ± 0.3", "unit": "mmol/L"}, {"measurement": "TG (triglyceride), serum", "setting": "[1]; [3]", "result": "0.6 ± 0.1", "unit": "mmol/L"}, {"measurement": "TP (total protein), serum", "setting": "[1]; [3]", "result": "68.3 ± 4.1", "unit": "g/L"}, {"measurement": "hydroxyproline amount in rat liver", "setting": "[1]; [3]", "result": "0.216 ± 0.062", "unit": "ug/mg wet weight"}, {"measurement": "ALB (albumin), serum", "setting": "[1]; [4]", "result": "18.8 ± 2.4", "unit": "g/L"}, {"measurement": "ALP (alkaline phosphatase), serum", "setting": "[1]; [4]", "result": "304.3 ± 90.4", "unit": "IU/L"}, {"measurement": "ALT (alanine aminotransferase), serum", "setting": "[1]; [4]", "result": "80.6 ± 21.3", "unit": "IU/L"}, {"measurement": "AST (aspartate aminotransferase), serum", "setting": "[1]; [4]", "result": "248.8 ± 38.3", "unit": "IU/L"}, {"measurement": "Bilirubin, serum", "setting": "[1]; [4]", "result": "3.3 ± 0.5", "unit": "µmol/L"}, {"measurement": "GLU (glucose), serum", "setting": "[1]; [4]", "result": "6.2 ± 0.7", "unit": "mmol/L"}, {"measurement": "Liver parameters", "setting": "[1]; [4]", "result": "4.1 ± 0.4"}, {"measurement": "Liver weight", "setting": "[1]; [4]", "result": "11.3 ± 2.5", "unit": "g"}, {"measurement": "TCH (total cholesterol), serum", "setting": "[1]; [4]", "result": "1.6 ± 0.3", "unit": "mmol/L"}, {"measurement": "TG (triglyceride), serum", "setting": "[1]; [4]", "result": "0.6 ± 0.2", "unit": "mmol/L"}, {"measurement": "TP (total protein), serum", "setting": "[1]; [4]", "result": "66.4 ± 4.6", "unit": "g/L"}, {"measurement": "hydroxyproline amount in rat liver", "setting": "[1]; [4]", "result": "0.192 ± 0.045", "unit": "ug/mg wet weight"}, {"measurement": "ALB (albumin), serum", "setting": "[1]; [5]", "result": "19.7 ± 3.7", "unit": "g/L"}, {"measurement": "ALP (alkaline phosphatase), serum", "setting": "[1]; [5]", "result": "216.5 ± 91.0", "unit": "IU/L"}, {"measurement": "ALT (alanine aminotransferase), serum", "setting": "[1]; [5]", "result": "69.8 ± 31.3", "unit": "IU/L"}, {"measurement": "AST (aspartate aminotransferase), serum", "setting": "[1]; [5]", "result": "219.6 ± 56.7", "unit": "IU/L"}, {"measurement": "Bilirubin, serum", "setting": "[1]; [5]", "result": "2.9 ± 0.4", "unit": "µmol/L"}, {"measurement": "GLU (glucose), serum", "setting": "[1]; [5]", "result": "6.3 ± 1.0", "unit": "mmol/L"}, {"measurement": "Liver parameters", "setting": "[1]; [5]", "result": "4.0 ± 0.5"}, {"measurement": "Liver weight", "setting": "[1]; [5]", "result": "10.1 ± 3.2", "unit": "g"}, {"measurement": "TCH (total cholesterol), serum", "setting": "[1]; [5]", "result": "2.1 ± 0.8", "unit": "mmol/L"}, {"measurement": "TG (triglyceride), serum", "setting": "[1]; [5]", "result": "0.5 ± 0.2", "unit": "mmol/L"}, {"measurement": "TP (total protein), serum", "setting": "[1]; [5]", "result": "70.4 ± 4.4", "unit": "g/L"}, {"measurement": "hydroxyproline amount in rat liver", "setting": "[1]; [5]", "result": "0.165 ± 0.038", "unit": "ug/mg wet weight"}, {"measurement": "ALB (albumin), serum", "setting": "[1]; [6]", "result": "18.8 ± 2.5", "unit": "g/L"}, {"measurement": "ALP (alkaline phosphatase), serum", "setting": "[1]; [6]", "result": "357.1 ± 120.7", "unit": "IU/L"}, {"measurement": "ALT (alanine aminotransferase), serum", "setting": "[1]; [6]", "result": "90.9 ± 37.3", "unit": "IU/L"}, {"measurement": "AST (aspartate aminotransferase), serum", "setting": "[1]; [6]", "result": "260.0 ± 73.1", "unit": "IU/L"}, {"measurement": "Bilirubin, serum", "setting": "[1]; [6]", "result": "3.3 ± 0.8", "unit": "µmol/L"}, {"measurement": "GLU (glucose), serum", "setting": "[1]; [6]", "result": "6.1 ± 0.9", "unit": "mmol/L"}, {"measurement": "Liver parameters", "setting": "[1]; [6]", "result": "4.4 ± 0.8"}, {"measurement": "Liver weight", "setting": "[1]; [6]", "result": "12.9 ± 4.7", "unit": "g"}, {"measurement": "TCH (total cholesterol), serum", "setting": "[1]; [6]", "result": "1.6 ± 0.5", "unit": "mmol/L"}, {"measurement": "TG (triglyceride), serum", "setting": "[1]; [6]", "result": "0.5 ± 0.2", "unit": "mmol/L"}, {"measurement": "TP (total protein), serum", "setting": "[1]; [6]", "result": "69.1 ± 6.1", "unit": "g/L"}, {"measurement": "hydroxyproline amount in rat liver", "setting": "[1]; [6]", "result": "0.222 ± 0.048", "unit": "ug/mg wet weight"}, {"measurement": "steatosis and fat cavities in liver cells (histology)", "setting": "[1]; prevention high dose group, 3 cases", "result": "50-60%"}, {"measurement": "steatosis and fat cavities in liver cells (histology)", "setting": "[1]; prevention high dose group, 5 cases", "result": "60-80%"}, {"measurement": "steatosis and fat cavities in liver cells (histology)", "setting": "[1]; prevention low dose group, all cases", "result": "60-80%"}, {"measurement": "liver damage caused by CC14 in rat (summary)", "setting": "[1]; serum biochemical parameters, liver hydroxyproline amount, liver pathological features", "result": "can improve liver damage caused by CC14 in rat"}, {"measurement": "steatosis and fat cavities in liver cells (histology)", "setting": "[1]; treatment high dose group, 2 cases", "result": "Over 80%"}, {"measurement": "steatosis and fat cavities in liver cells (histology)", "setting": "[1]; treatment high dose group, 2 cases with less steatosis", "result": "50-60%"}, {"measurement": "steatosis and fat cavities in liver cells (histology)", "setting": "[1]; treatment high dose group, 4 cases with even less steatosis", "result": "< 30", "unit": "%"}, {"measurement": "T/C(%) relative tumor inhibition rate", "setting": "[2]", "result": 49.40, "unit": "%"}]}
